This is an account of results in patent US9296697B2, “Hetaryl-substituted guanidine compounds and use thereof as binding partners for 5-HT5-receptors” (Abbott Laboratories, priority 2005, dated 2016).

T1 sequence (P47898 whole entry): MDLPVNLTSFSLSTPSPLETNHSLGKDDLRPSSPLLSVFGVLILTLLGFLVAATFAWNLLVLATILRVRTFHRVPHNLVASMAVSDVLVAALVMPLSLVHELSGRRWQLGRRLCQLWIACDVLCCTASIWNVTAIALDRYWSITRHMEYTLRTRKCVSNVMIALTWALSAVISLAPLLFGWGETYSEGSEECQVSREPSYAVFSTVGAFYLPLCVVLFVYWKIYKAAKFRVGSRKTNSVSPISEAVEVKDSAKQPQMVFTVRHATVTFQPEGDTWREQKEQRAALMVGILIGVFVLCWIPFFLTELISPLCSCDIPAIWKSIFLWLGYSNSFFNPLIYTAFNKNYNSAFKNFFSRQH

The test has as its target T1, h5-HT5A receptor (Homo sapiens, UniProt P47898).
T1 construct: expressed in transfected cells; membranes used
As to the kind of experiment: h5-HT5A [3H]5-CT binding assay. To be noted: affinity for 5-HT5A; membranes of HEK293 cells expressing the h5-HT5A receptor gene, 2.5 nM [3H]5-CT.
Compound `COc1ccccc1CNC(=N)Nc1ccc(-c2cccs2)cn1` [Example 87, N-(2-Methoxybenzyl)-N′-[5-(2-thienyl)pyridin-2-yl]guanidine] displayed an inhibitory constant (Ki) below 100 nM.
For `COc1ccccc1CNC(=N)Nc1ccc(-c2ccc(F)cc2)cn1` [Example 88, N-[5-(4-Fluorophenyl)pyridin-2-yl]-N′-(2-methoxybenzyl)guanidine acetate], the Ki is below 100 nM.
On to `COc1ccccc1CNC(=N)Nc1ccc(-c2ccc(C(F)(F)F)cc2)cn1` [Example 89, N-(2-Methoxybenzyl)-N′-{5-[4-(trifluoromethyl)phenyl]pyridin-2-yl}guanidine acetate], for which the inhibitory constant (Ki) is below 300 nM.
The compound `COc1ccccc1CNC(=N)Nc1ccc(C#N)cn1` [Example 90, N-(5-Cyanopyridin-2-yl)-N′-(2-methoxybenzyl)guanidine] came in with an inhibitory constant (Ki) below 100 nM.
Under `COc1cccc(Cl)c1CNC(=N)Nc1ccc(I)cn1` [Example 91, N-(2-Chloro-6-methoxybenzyl)-N′-(5-iodopyridin-2-yl)guanidine acetate] stands below 100 nM; under `COc1cccc(F)c1CNC(=N)Nc1ccc(I)cn1` [Example 92, N-(2-Fluoro-6-methoxybenzyl)-N′-(5-iodopyridin-2-yl)guanidine acetate], below 100 nM.
`COc1cccc(C)c1CNC(=N)Nc1ccc(I)cn1` [Example 93, N-(5-Iodopyridin-2-yl)-N′-(2-methoxy-6-methylbenzyl)guanidine acetate] yielded a Ki below 100 nM.
In the case of `N=C(NCc1ccccc1Cl)Nc1ccc(I)cn1` [Example 94, N-(2-Chlorobenzyl)-N′-(5-iodopyridin-2-yl)guanidine acetate] it was below 300 nM; in that of `COc1cccc(Cl)c1CNC(=N)Nc1ccc(C#N)cn1` [Example 95, N-(2-Chloro-6-methoxybenzyl)-N′-(5-cyanopyridin-2-yl)guanidine acetate], below 100 nM; in that of `COc1cccc(F)c1CNC(=N)Nc1ccc(C#N)cn1` [Example 96, N-(5-Cyanopyridin-2-yl)-N′-(2-fluoro-6-methoxybenzyl)guanidine acetate], below 100 nM.
The compound `COc1cccc(C)c1CNC(=N)Nc1ccc(C#N)cn1` [Example 97, N-(5-Cyanopyridin-2-yl)-N′-(2-methoxy-6-methylbenzyl)guanidine acetate] gave a Ki below 100 nM.
In the case of `N#Cc1ccc(NC(=N)NCc2ccccc2Cl)nc1` [Example 98, N-(2-Chlorobenzyl)-N′-(5-cyanopyridin-2-yl)guanidine acetate] it was below 300 nM.

The term Ki denotes the dissociation constant of the complex between target and ligand, obtained from inhibition or displacement. A high value points to lower affinity.
